Experimental data taken from patent US5019492A, “Photographic element and process comprising a blocked photographically useful compound” (Eastman Kodak Company, priority 1989, dated 1991).

Key:
[1] = Model deblocking (hydrolysis) half-lives of esters with mononucleophile (A+B) or dinucleophile hydroxylamine (A+C), pH 10, 25° C.; format: physicochemical; settings: for Ratio (A+B half-life to A+C half-life): rate enhancement due to hydroxylamine; for rate enhancement due to dinucleophile (hydroxylamine) participation, compared with comparison esters E-4 and E-5: pH 10.0, 25° C.
Experimental: Model studies were conducted on esters E-1 through E-5 to determine the possible rate enhancement which could be attained by using a dinucleophile rather than a mononucleophile to promote the removal from a phenolic moiety of a blocking group of this invention. Aqueous solutions A, B, and C, each containing 50% by volume of acetonitrile were prepared as follows (a separate solution A for each ester):
Solution A: 2.5 × 10^-4 M ester (or 2.5 × 10^-5 M
Solution B: 25% by volume carbonate buffer
(ionic strength 0.75); 0.05 N KCl
Solution C: Solution B with added 0.05 M
Then equal volumes of A and B (or A and C) were mixed at 25° C. to give a pH 10.0 solution and the reaction was followed by spectrophotometric measurements of the phenol (272 nm) or p-nitrophenol (402 nm) produced with time. In each case a reaction half-life (t1/2) was calculated from the equation t1/2 =1n(2)/k, where 1n(2) is the natural logarithm of 2 and k is the pseudo first-order rate constant calculated for the reaction. Smaller half-lives thus indicate more rapid reactions. The A+B combination provides an alkaline solution in which the main reactant is hydroxide ion (a mononucleophile) while in the A+C combination the active reactant is hydroxylamine (a dinucleophile). A ratio of the A+B half-life to the A+C half-life provides a measure of rate enhancement due to participation of hydroxylamine in the deblocking reaction.

[2] = Unblocking of shifted masking coupler in fixed unexposed strips (density at 520 nm); settings: blocked compound
Experimental: Each compound was dispersed in an equal weight of 2,4-di-t-pentylphenol and coated in the following format on a poly(ethylene terephthalate) film support (unless otherwise specified, component amounts are given in mg/m^2 with silver halide counted as silver):
OVERCOAT Gelatin (2691); bis(vinylsulfonyl-
LAYER: methyl) ether hardener (1.75% of
EMULSION Gelatin (3767); unsensitized AgBr
LAYER: emulsion (906); masking coupler
Unexposed strips of this coated element were soaked 1 minute in a fixing solution to remove silver halide, washed, and then immersed in one of the following processing solutions at temperatures conventionally used for processing in a KODAK C-41 process:
P-1: pH 10 carbonate buffer
P-2: pH 10 carbonate buffer with 0.024M hydroxylamine sulfate
P-3: C-41 color developer with hydroxylamine sulfate omitted
P-4: C-41 color developer solution containing hydroxylamine sulfate

[3] = Deblocking of blocked filter dyes in C-41 developer with or without hydroxylamine sulfate at 38° C.; settings: unblocked dye
Experimental: FILTER DYE Gelatin (4844); blocked filter dye
bis(vinylsulfonylmethyl) ether
Strips of each coating were soaked at 38° C. in C-41 developer or in the same C-41 developer formulation from which hydroxylamine sulfate (HAS) had been omitted. The rate of deblocking of each filter dye was followed by measuring the density at the absorption maximum of the unblocked dye at selected time intervals.

CC(=O)CC(C)(C)C(=O)Oc1ccccc1 [Compound E-5, reference compound]
Ratio (A+B half-life to A+C half-life) [1]: 166

CCC(C)(C)c1ccc(OCCCCNC(=O)c2cc(Oc3ccc(N=Nc4cc(OC(C)C(=O)O)c5ccccc5c4OC(=O)C4(C)CCCCC4=O)cc3)c3ccccc3c2O)c(C(C)(C)CC)c1 (stereo not drawn) [Compound 3]
absorption maximum (blocked) [2]: about 375 nm

CCCCCCCCCCCCN(C(=O)OCc1ccc(OC(=O)C2(C)CCCCC2=O)c(NS(C)(=O)=O)c1)c1ccc(N=Nc2ccc([N+](=O)[O-])cc2C(=O)OC)cc1OC (stereo not drawn) [Compound 6]
λmax (Unblocked) [3]: 495 nm

CCCCCCCCCCCCOC(=O)c1ccc(N=Nc2ccc(N(CC)C(=O)OCc3ccc(OC(=O)C4(C)CCCCC4=O)c(Cl)c3)c(OC)c2)cc1 (stereo not drawn) [Compound 5]
λmax (Unblocked) [3]: 440 nm

CC(=O)C(C)(C)C(=O)Oc1ccc([N+](=O)[O-])cc1 [Compound E-1]
rate enhancement due to dinucleophile (hydroxylamine) participation, compared with comparison esters E-4 and E-5 [1]: twenty to seventy thousand times greater | Ratio (A+B half-life to A+C half-life) [1]: 36 × 10^3

CC1(C(=O)Oc2ccccc2)CCCCC1=O (stereo not drawn) [Compound E-3]
rate enhancement due to dinucleophile (hydroxylamine) participation, compared with comparison esters E-4 and E-5 [1]: twenty to seventy thousand times greater | Ratio (A+B half-life to A+C half-life) [1]: 3.2 × 10^6

CCCCCCCCCCCCOC(=O)c1ccc(N=Nc2ccc(N(CC)C(=O)OCc3ccc(OC(=O)C4(C)CCCCC4=O)c(NS(C)(=O)=O)c3)c(OC)c2)cc1 (stereo not drawn) [Compound 4]
λmax (Unblocked) [3]: 440 nm

CC(=O)C(C)(C)C(=O)Oc1ccccc1 [Compound E-2]
rate enhancement due to dinucleophile (hydroxylamine) participation, compared with comparison esters E-4 and E-5 [1]: twenty to seventy thousand times greater | Ratio (A+B half-life to A+C half-life) [1]: 93 × 10^3

CC(=O)CCC(=O)Oc1ccccc1 [Compound E-4, reference compound]
Ratio (A+B half-life to A+C half-life) [1]: 47
